Measured values as given in patent US10000454B2, “Antidiabetic tricyclic compounds” (Merck Sharp & Dohme Corp., priority 2014, dated 2018).

What was measured:
Human GPR40 [1] = molecular target: T1, Human GPR40 (Homo sapiens, UniProt O14842); assay: Inositol Phosphate Turnover (IP1) Assay; type: cell-based; design: expressed in transfected cells; host or cells: HEK cells (stably expressing the aequorin reporter); details: HEK cells stably expressing human GPR40, CisBio IP-One kit
Procedure: (§1) Human and mouse GPR40 stable cell-lines were generated in CHO cells stably expressing NFAT BLA (Beta-lactamase). A human GPR40 stable cell-line was generated in HER cells stably expressing the aequorin expressing reporter. The expression plasmids were transfected using lipofectamine (Life Technologies) following manufacturer's instructions. Stable cell-lines were generated following drug selection.
The assay is performed in 384-well format. HEK cells stably expressing human GPR40 are plated at 15,000 cells per well in growth medium (DMEM/10% fetal calf serum). Cell plates are then incubated 16 hours at 37 degrees in a 5% CO2 incubator.
Measurement of Inositol Phosphate Turnover (IP1) is performed using the CisBio IP-One kit (Part number 62IPAPEB). After the 16 hour incubation, the cells are washed with HEPES buffer and 10 ul of stimulation buffer (prepared as described in the kit) is added to each well. In a separate plate, compounds are diluted in DMSO (400-fold over the final concentration in the assay well) and 25 nl is acoustically transferred to the appropriate well in the assay cell plate. The plates are then incubated for 60 minutes at 37 degrees. 10 ul of detection buffer (also prepared as described in the IP-One kit) is added to each well and the plates are incubated for 60 minutes in the dark. The plates are then read in a Perkin Elmer EnVision or equivalent reader able to measure FRET. Fluorescent ratio of emission at 665 and 620 nm is then converted to IP1 concentration by back calculating from an IP1 standard curve prepared at the time of the assay.

Human GPR40 [2] = molecular target: T1, Human GPR40; assay: FLIPR assay, agonist-induced calcium mobilization; type: cell-based; design: expressed in transfected cells; details: GPR40/CHO NFAT BLA cells
Procedure: as §1
FLIPR (Fluorimetric Imaging Plate Reader, Molecular Devices) assays were performed to measure agonist-induced calcium mobilization of the stable clones. For the FLIPR assay, one day before assay, GPR40/CHO NFAT BLA cells were seeded into black-wall-clear-bottom 384-well plates (Costar) at 1.4×10e4 cells/20 μL medium/well. The cells were incubated with 20 μl/well of the assay buffer (HMS, 0.1% BSA, 20 mM HEPES, 2.5 mM probenecid, pH 7.4) containing 8 μM fluo-4, AM, 0.08% pluronic acid at room temperature for 100 minutes. Fluorescence output was measured using FLIPR. Compounds were dissolved in DMSO and diluted to desired concentrations with assay buffer. 13.3 μL/well of compound solution was added.

T1 sequence (O14842 whole entry): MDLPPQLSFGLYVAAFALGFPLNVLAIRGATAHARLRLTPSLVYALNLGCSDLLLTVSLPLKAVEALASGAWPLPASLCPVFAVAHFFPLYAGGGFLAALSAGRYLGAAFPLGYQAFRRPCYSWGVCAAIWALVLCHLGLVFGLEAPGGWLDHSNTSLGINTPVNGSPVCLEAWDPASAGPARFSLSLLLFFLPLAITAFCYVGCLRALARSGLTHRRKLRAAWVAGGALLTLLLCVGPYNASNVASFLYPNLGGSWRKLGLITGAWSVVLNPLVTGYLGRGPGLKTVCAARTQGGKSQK

| Structure (SMILES) | EC50 (Human GPR40 [1]) [nM] | EC50 (Human GPR40 [2]) [nM] |
| --- | --- | --- |
| O=C(O)[C@H]1[C@@H]2Cc3cc(OCc4ccc5c(c4)C(O)(c4ccccc4C(F)(F)F)CC5)ccc3[C@@H]21 (stereo partly drawn) [Example 21, (1S,1aS,6aR)-4-((3-hydroxy-3-(2-(trifluoromethyl)phenyl)-2,3-dihydro-1H-inden-5-yl)methoxy)-1,1a,6,6a-tetrahydrocyclopropa[a]indene-1-carboxylic acid] | 16.6 | 17.7 |
| CC1(C)CC(c2ccncc2C(F)(F)F)c2cc(COc3cc4c(cn3)[C@H]3[C@@H](C4)[C@@H]3C(=O)O)c(F)cc21 (stereo partly shown) [Example 25] | 6.91 | 6.92 |
| CC1(C)CC(c2cccnc2C(F)(F)F)c2cc(COc3cc4c(cn3)[C@H]3[C@@H](C4)[C@@H]3C(=O)O)c(F)cc21 (stereo partly drawn) [Example 26, (5aR,6S,6aS)-3-((6-fluoro-1,1-dimethyl-3-(2-(trifluoromethyl)pyridin-3-yl)-2,3-dihydro-1H-inden-5-yl)methoxy)-5,5a,6,6a-tetrahydrocyclopropa [4,5]cyclopenta[1,2-c]pyridine-6-carboxylic acid] | 20.8 | 14.1 |
| COc1ncccc1C1CCC(C)(C)c2cc(F)c(COc3cc4c(cn3)[C@H]3[C@@H](C4)[C@@H]3C(=O)O)cc21 (stereo partly drawn) [Example 27, (5aR,6S,6aS)-3-((3-fluoro-8-(2-methoxypyridin-3-yl)-5,5-dimethyl-5,6,7,8-tetrahydronaphthalen-2-yl)methoxy)-5,5a,6,6a-tetrahydrocyclopropa [4,5]cyclopenta[1,2-c]pyridine-6-carboxylic acid] | 15.6 | 7.22 |
| CC1(C)CC(c2ccc(OCCCS(C)(=O)=O)cc2C(F)(F)F)c2cc(COc3cc4c(cn3)[C@H]3[C@@H](C4)[C@@H]3C(=O)O)c(F)cc21 (stereo partly drawn) [Example 28, (6S)-3-((6-fluoro-1,1-dimethyl-3-(4-(3-(methylsulfonyl)propoxy)-2-(trifluoromethyl)phenyl)-2,3-dihydro-1H-inden-5-yl)methoxy)-5,5a,6,6a-tetrahydrocyclopropa[4,5]cyclopenta[1,2-c]pyridine-6-carboxylic acid] | 41.2 | 6.9 |
| Cc1nc(OCCC(C)(C)O)ccc1C1CCCc2ccc(COc3cc4c(cn3)[C@H]3[C@@H](C4)[C@@H]3C(=O)O)cc21 (stereo partly drawn) [Example 30, (5aR,6S,6aS)-3-((8-(6-(3-hydroxy-3-methylbutoxy)-2-methylpyridin-3-yl)-5,6,7,8-tetrahydronaphthalen-2-yl)methoxy)-5,5a,6,6a-tetrahydrocyclopropa[4,5] cyclopenta[1,2-c]pyridine-6-carboxylic acid] | 35 | 33 |
| C=C(C)CCOc1ccc(C2CCCc3ccc(COc4cc5c(cn4)[C@H]4[C@@H](C5)[C@@H]4C(=O)O)cc32)c(C)n1 (stereo partly drawn) [Example 31, (5aR,6S,6aS)-3-((8-(2-methyl-6-((3-methylbut-3-en-1-yl)oxy)pyridin-3-yl)-5,6,7,8-tetrahydronaphthalen-2-yl)methoxy)-5,5a,6,6a-tetrahydrocyclopropa[4,5] cyclopenta[1,2-c]pyridine-6-carboxylic acid] | 214 | 51.9 |
| CC1(C)CN(c2ccccc2C(F)(F)F)c2cc(COc3cc4c(cn3)[C@H]3[C@@H](C4)[C@@H]3C(=O)O)c(F)cc21 [Example 32, (5aR,6S,6aS)-3-((5-fluoro-3,3-dimethyl-1-(2-(trifluoromethyl)phenyl)indolin-6-yl)methoxy)-5,5a,6,6a-tetrahydrocyclopropa[4,5]cyclopenta[1,2-c]pyridine-6-carboxylic acid] | 9.96 | 8.94 |
| O=C(O)[C@H]1[C@@H]2Cc3cc(OCc4ccc5c(c4)N(c4ccccc4C(F)(F)F)CC5)ncc3[C@@H]21 [Example 33] | 26.2 | 15.3 |
| O=C(O)[C@H]1[C@@H]2Cc3cc(OCc4ccc5ccn(-c6ccccc6C(F)(F)F)c5c4)ncc3[C@@H]21 [Example 34, (5aR,6S,6aS)-3-((1-(2-(trifluoromethyl)phenyl)-1H-indol-6-yl)methoxy)-5,5a,6,6a-tetrahydrocyclo-propa[4,5]cyclopenta[1,2-c]pyridine-6-carboxylic acid] | 23.2 | 33.9 |
| O=C(O)[C@H]1[C@@H]2Cc3cc(OCc4ccc5c(c4)N(c4ccccc4)CC5)ncc3[C@@H]21 [Example 35, (5aR,6S,6aS)-3-((1-(2-phenyl)indolin-6-yl)methoxy)-5,5a,6,6a-tetrahydrocyclopropa[4,5] cyclopenta[1,2-c]pyridine-6-carboxylicacid] | 168 | 53.4 |
| O=C(O)[C@H]1[C@@H]2Cc3cc(OCc4ccc5c(Br)cn(-c6ccccc6C(F)(F)F)c5c4)ncc3[C@@H]21 [Example 36, (5aR,6S,6aS)-3-({3-bromo-1-[2-(trifluoromethyl)phenyl]-1H-indol-6-yl}methoxy)-5,5a,6,6a-tetrahydrocyclopropa[4,5] cyclopenta[1,2-c]pyridine-6-carboxylic acid] | 47.6 | 26.9 |
| O=C(O)[C@H]1[C@@H]2Cc3cc(OCc4ccc5c(C6CC6)cn(-c6ccccc6C(F)(F)F)c5c4)ncc3[C@@H]21 [Example 37, (5aR,6S,6aS)-3-({3-cyclopropyl-1-[2-(trifluoromethyl)phenyl]-1H-indol-6-yl}methoxy)-5,5a,6,6a-tetrahydrocyclopropa[4,5] cyclopenta[1,2-c]pyridine-6-carboxylic acid] | 91.5 | 42.5 |
| CN1C(c2ccccc2C(F)(F)F)c2cc(COc3cc4c(cn3)[C@H]3[C@@H](C4)[C@@H]3C(=O)O)ccc2C1(C)C (stereo partly drawn) [Example 38, (5aR,6S,6aS)-3-((1,1,2-trimethyl-3-(2-(trifluoromethyl)phenyl)isoindolin-5-yl)methoxy)-5,5a,6,6a-tetrahydrocyclopropa[4,5]cyclopenta[1,2-c]pyridine-6-carboxylic acid] | 11.9 | 5.35 |
| CC1(C)NC(c2ccccc2C(F)(F)F)c2cc(COc3cc4c(cn3)[C@H]3[C@@H](C4)[C@@H]3C(=O)O)ccc21 (stereo partly drawn) [Example 39, (5aR,6S,6aS)-3-((1,1-dimethyl-3-(2-(trifluoromethyl)phenyl)isoindolin-5-yl)methoxy)-5,5a,6,6a-tetrahydrocyclopropa[4,5]cyclopenta[1,2-c]pyridine-6-carboxylic acid] | 15.4 | 13.9 |
| CC1(c2ccccc2C(F)(F)F)OCc2ccc(COc3cc4c(cn3)[C@H]3[C@@H](C4)[C@@H]3C(=O)O)cc21 (stereo partly shown) [Example 40] | 431 | 16.7 |
| Cc1c(COc2cc3c(cn2)[C@H]2[C@@H](C3)[C@@H]2C(=O)O)ccc2c1C(c1ccccc1C(F)(F)F)CCC2 (stereo partly drawn) [Example 43, (5aR,6S,6aS)-3-((1-methyl-8-(2-(trifluoro-methyl)phenyl)-5,6,7,8-tetrahydro-naphthalen-2-yl)methoxy)-5,5a,6,6a-tetrahydrocyclopropa[4,5] cyclopenta[1,2-c]pyridine-6-carboxylic acid] | 70.8 | 38.8 |
| O=C(O)[C@H]1[C@@H]2Cc3cc(OCc4cc5c(cc4F)CCCC5c4ccccc4C(F)(F)F)ncc3[C@@H]21 (stereo partly drawn) [Example 44, (5aR,6S,6aS)-3-((3-fluoro-8-(2-(trifluoro-methyl)phenyl)-5,6,7,8-tetrahydronaphthalen-2-yl)methoxy)-5,5a,6,6a-tetrahydrocyclopropa[4,5] cyclopenta[1,2-c]pyridine-6-carboxylic acid] | 68 | 21 |
| CC1CCc2ccc(COc3cc4c(cn3)[C@H]3[C@@H](C4)[C@@H]3C(=O)O)cc2C1c1ccccc1C(F)(F)F (stereo partly drawn) [Example 46, (5aR,6S,6aS)-3-((7-methyl-8-(2-(trifluoromethyl)phenyl)-5,6,7,8-tetrahydronaphthalen-2-yl)methoxy)-5,5a,6,6a-tetrahydrocyclopropa[4,5]cyclopenta[1,2-c]pyridine-6-carboxylic acid] | 79.6 | 8.74 |
| CC1=C(c2ccccc2C(F)(F)F)c2cc(COc3cc4c(cn3)[C@H]3[C@@H](C4)[C@@H]3C(=O)O)ccc2CC1 [Example 47, (5aR,6S,6aS)-3-((7-methyl-8-(2-(trifluoromethyl)-phenyl)-5,6-dihydro-naphthalen-2-yl)methoxy)-5,5a,6,6a-tetrahydrocyclo-propa[4,5]cyclopenta[1,2-c]pyridine-6-carboxylic acid] | 236 | 11.4 |
